Measured values: ChEMBL document CHEMBL2010690, “Identification and evaluation of apoptotic compounds from Garcinia oligantha” (Bioorg Med Chem Lett, 2012)
The source made the active and inactive calls. The calls are words filed in the database; no cut-off is given here.

Assays:
Format in all cases: functional, cell-based
HeLa C3 [1] = assay: Induction of apoptosis in human HeLaC3 cells assessed as caspase-3 activation at 10 uM after 72 hrs by YFP/CFP-based FRET analysis
HeLa C3 [2] = assay: Induction of apoptosis in human HeLaC3 cells assessed as caspase-3 activation at 5 uM after 72 hrs by YFP/CFP-based FRET analysis
HeLa C3 [3] = assay: Induction of apoptosis in human HeLaC3 cells assessed as caspase-3 activation at 2.5 uM after 72 hrs by YFP/CFP-based FRET analysis
HeLa C3 [4] = assay: Induction of apoptosis in human HeLaC3 cells assessed as caspase-3 activation at 1 uM after 72 hrs by YFP/CFP-based FRET analysis
HeLa [5] = assay: Induction of apoptosis in human HeLa cells assessed as increase in PARP cleavage at 5 uM after 24 hrs by Western blotting analysis
HeLa [6] = assay: Induction of apoptosis in human HeLa cells assessed as increase in PARP cleavage at 5 uM after 48 hrs by Western blotting analysis
HeLa [7] = assay: Cytotoxicity against human HeLa cells after 72 hrs by MTT assay
HeLa [8] = assay: Induction of apoptosis in human HeLa cells assessed as increase in PARP cleavage at 10 uM after 24 hrs by Western blotting analysis
HeLa [9] = assay: Induction of apoptosis in human HeLa cells assessed as increase in PARP cleavage at 10 uM after 48 hrs by Western blotting analysis

Structure (SMILES)	Activity (HeLa C3 [1])	Activity (HeLa C3 [2])	Activity (HeLa C3 [3])	Activity (HeLa C3 [4])	Activity (HeLa [5])	Activity (HeLa [6])	IC50 (HeLa [7]) [µM]	Activity (HeLa [8])	Activity (HeLa [9])
CO[C@@]12C=C3C(=O)c4c(O)cc(O)c(CC=C(C)C)c4O[C@@]34[C@@H](C1)C(C)(C)O[C@@]4(CC=C(C)C)C2=O [GAUDICHAUDIONE H]	Active	Active	Active	inactive	Active	Active	0.9		
CC(C)=CCC1(CC=C(C)C)C(=O)C(O)=C(O)c2oc3cc4c(c(O)c3c(=O)c21)C=CC(C)(C)O4 [OLIGANTHIN A]	Active	Active	Active	inactive	Active	Active	1.58		
CC(C)=CCC1(O)C(=O)c2oc3cc4c(c(O)c3c(=O)c2C(CC=C(C)C)(CC=C(C)C)C1=O)C=CC(C)(C)O4 (stereo unspecified) [OLIGANTHIN B]	Active	Active	inactive	inactive			1.52	Active	Active
CC(C)=CCc1c(O)cc2oc3c(c(=O)c2c1O)C(CC=C(C)C)(CC=C(C)C)C(=O)C(O)(CC=C(C)C)C3=O (stereo unspecified) [OLIGANTHIN C]	Active	inactive	inactive	inactive			4.15		
CC(=O)CC1(O)C(=O)c2oc3cc4c(c(O)c3c(=O)c2C(CC=C(C)C)(CC=C(C)C)C1=O)C=CC(C)(C)O4 (stereo unspecified) [OLIGANTHIN D]	Active	inactive	inactive	inactive			7.82		
